Patent US20250230193A1, “CYCLIC COMPOUND HAVING SELECTIVE KRAS INHIBITORY EFFECT ON HRAS AND NRAS” (CHUGAI SEIYAKU KABUSHIKI KAISHA, priority 2022, published 2025)

Assays:
[1] = molecular target: GDP-bound NRAS wild-type protein (Homo sapiens, UniProt P01111); assay: Binding to NRAS by surface plasmon resonance (SPR), Single Cycle Kinetics; conditions: SPR; KD ratio class
[2] = system: human lung cancer strain NCI-H441; assay: cells; conditions: NCI-H441, 96 h, read-out: NCI-H441 IC50 (nM)
[3] = molecular target: GDP-bound HRAS wild-type protein (Homo sapiens, UniProt P01112); assay: Binding to HRAS by surface plasmon resonance (SPR), Single Cycle Kinetics; conditions: SPR; KD ratio class
GDP-bound HRAS wild-type protein, sequence (P01112 whole entry): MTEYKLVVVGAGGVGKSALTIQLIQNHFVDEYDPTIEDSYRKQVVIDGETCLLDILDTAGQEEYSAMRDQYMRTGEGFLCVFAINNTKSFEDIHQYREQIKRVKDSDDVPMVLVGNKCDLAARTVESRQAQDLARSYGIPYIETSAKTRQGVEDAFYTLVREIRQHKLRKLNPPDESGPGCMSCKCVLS

GDP-bound NRAS wild-type protein, sequence (P01111 whole entry): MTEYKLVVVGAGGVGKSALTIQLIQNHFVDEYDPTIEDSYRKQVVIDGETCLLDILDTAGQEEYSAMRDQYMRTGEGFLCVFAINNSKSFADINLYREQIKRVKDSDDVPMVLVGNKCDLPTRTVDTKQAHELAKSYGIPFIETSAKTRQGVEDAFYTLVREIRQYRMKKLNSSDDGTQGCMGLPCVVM

SMILES	IC50 [2]	NRAS/KRAS (ratio of KD value for GDP-bound NRAS wild-type protein to KD value for KRAS) [1]	HRAS/KRAS (ratio of KD value for GDP-bound HRAS wild-type protein to KD value for KRAS) [3]
CCO[C@@H]1C[C@H]2C(=O)NC3(CCC3)C(=O)N(C)[C@@H](C3CCCC3)C(=O)N(C)[C@H](C)CC(=O)N(C)[C@@H](CC3CCCC3)C(=O)N[C@@H]([C@@H](C)CC)C(=O)N(C)CC(=O)N(C)[C@H]3C/C=C\CCN(C3=O)[C@@H](Cc3ccc(C)cc3)C(=O)N(C)CC(=O)N[C@@H](CCc3cc(F)c(C(F)(F)F)c(F)c3)C(=O)N2C1 [PP1413]	62.5 nM	B (a compound having 3 or more and less than 10 is denoted as B)	B (a compound having 3 or more and less than 10 is denoted as B)
CCO[C@@H]1C[C@H]2C(=O)NC3(CCC3)C(=O)N(C)[C@@H](C3CCCC3)C(=O)N(C)[C@H](C(=O)N3CCOCC3)CC(=O)N(C)[C@@H](CC(C)C)C(=O)N[C@@H]([C@@H](C)CC)C(=O)N(C)CC(=O)N(C)[C@H]3C/C=C\CCN(C3=O)[C@@H](Cc3ccc(C)cc3)C(=O)N(C)CC(=O)N[C@@H](CCc3cc(F)c(C(F)(F)F)c(F)c3)C(=O)N2C1 [PP1415]	9.5 nM	A (a compound having 10 or more and less than 20 is denoted as A)	A (a compound having 10 or more and less than 20 is denoted as A)
CCO[C@@H]1C[C@H]2C(=O)NC3(CCC3)C(=O)N(C)[C@@H](C3CCCC3)C(=O)N(C)[C@H](C)CC(=O)N(C)[C@@H](CC(C)C)C(=O)N[C@@H]([C@@H](C)CC)C(=O)N(C)CC(=O)N(C)[C@H]3C/C=C\CCN(C3=O)[C@@H](Cc3ccc(C)cc3)C(=O)N(C)CC(=O)N[C@@H](CCc3cc(F)c(C(F)(F)F)c(F)c3)C(=O)N2C1 [PP1417]	18.4 nM	B (a compound having 3 or more and less than 10 is denoted as B)	B (a compound having 3 or more and less than 10 is denoted as B)
CCO[C@@H]1C[C@H]2C(=O)NC3(CCC3)C(=O)N(C)[C@@H](C3CCCC3)C(=O)N(C)[C@H](C(=O)N3CCOCC3)CC(=O)N(C)[C@@H](CC3CCCCC3)C(=O)N[C@@H]([C@@H](C)CC)C(=O)N(C)CC(=O)N(C)[C@H]3C/C=C\CCN(C3=O)[C@@H](Cc3ccc(C)cc3)C(=O)N(C)CC(=O)N[C@@H](CCc3cc(F)c(C(F)(F)F)c(F)c3)C(=O)N2C1 [PP1420]	31.4 nM	A (a compound having 10 or more and less than 20 is denoted as A)	A (a compound having 10 or more and less than 20 is denoted as A)
CCO[C@@H]1C[C@H]2C(=O)NC3(CCC3)C(=O)N(C)[C@@H](C3CCCC3)C(=O)N(C)[C@H](C(=O)N3CCOCC3)CC(=O)N(C)[C@@H](CC3CCC3)C(=O)N[C@@H]([C@@H](C)CC)C(=O)N(C)CC(=O)N(C)[C@H]3C/C=C\CCN(C3=O)[C@@H](Cc3ccc(C)cc3)C(=O)N(C)CC(=O)N[C@@H](CCc3cc(F)c(C(F)(F)F)c(F)c3)C(=O)N2C1 [PP1424]	26.3 nM	A (a compound having 10 or more and less than 20 is denoted as A)	A (a compound having 10 or more and less than 20 is denoted as A)
CCO[C@@H]1C[C@H]2C(=O)NC3(CCC3)C(=O)N(C)[C@@H](C3CCCC3)C(=O)N(C)[C@H](C(=O)N(C)C)CC(=O)N(C)[C@@H](CC3CC3)C(=O)N[C@@H]([C@@H](C)CC)C(=O)N(C)CC(=O)N(C)[C@H]3C/C=C\CCN(C3=O)[C@@H](Cc3ccc(F)cc3)C(=O)N(C)CC(=O)N[C@@H](CCc3ccc4sccc4c3)C(=O)N2C1 [PP1426]	475 nM	A (a compound having 10 or more and less than 20 is denoted as A)	B (a compound having 3 or more and less than 10 is denoted as B)
CCO[C@@H]1C[C@H]2C(=O)NC3(CCC3)C(=O)N(C)[C@@H](C(CC)CC)C(=O)N(C)[C@H](C(=O)N(C)C)CC(=O)N(C)[C@@H](CC3CC3)C(=O)N[C@@H]([C@@H](C)CC)C(=O)N(C)CC(=O)N(C)[C@H]3C/C=C\CCN(C3=O)[C@@H](CC3CCC(F)(F)CC3)C(=O)N(C)CC(=O)N[C@@H](CCc3cc(F)c(C(F)(F)F)c(F)c3)C(=O)N2C1 [PP1429]	38.7 nM	AA (a compound having 20 or more is denoted as AA)	A (a compound having 10 or more and less than 20 is denoted as A)
CCO[C@@H]1C[C@H]2C(=O)NC3(CCC3)C(=O)N(C)[C@@H](C(CC)CC)C(=O)N(C)[C@H](C(=O)N(C)C)CC(=O)N(C)[C@@H](CC3CCCC3)C(=O)N[C@@H]([C@@H](C)CC)C(=O)N(C)CC(=O)N(C)[C@H]3C/C=C\CCN(C3=O)[C@@H](CC3CCCCC3)C(=O)N(C)CC(=O)N[C@@H](CCc3cc(F)c(C(F)(F)F)c(F)c3)C(=O)N2C1 [PP1430]	70.4 nM	A (a compound having 10 or more and less than 20 is denoted as A)	A (a compound having 10 or more and less than 20 is denoted as A)

Continued, in another order:

IC50 [2]	SMILES	NRAS/KRAS (ratio of KD value for GDP-bound NRAS wild-type protein to KD value for KRAS) [1]	HRAS/KRAS (ratio of KD value for GDP-bound HRAS wild-type protein to KD value for KRAS) [3]
3.8 nM	CCO[C@@H]1C[C@H]2C(=O)NC3(CCC3)C(=O)N(C)[C@@H](C3CCCC3)C(=O)N(C)[C@H](C(=O)N3CCCC3)CC(=O)N(C)[C@@H](CC(C)C)C(=O)N[C@@H]([C@@H](C)CC)C(=O)N(C)CC(=O)N(C)[C@H]3C/C=C\CCN(C3=O)[C@@H](Cc3ccc(C)cc3)C(=O)N(C)CC(=O)N[C@@H](CCc3cc(F)c(C(F)(F)F)c(F)c3)C(=O)N2C1 [PP1416]	A (a compound having 10 or more and less than 20 is denoted as A)	A (a compound having 10 or more and less than 20 is denoted as A)
29.9 nM	CCO[C@@H]1C[C@H]2C(=O)NC3(CCC3)C(=O)N(C)[C@@H](C3CCCC3)C(=O)N(C)[C@H](C(=O)N3CCOCC3)CC(=O)N(C)[C@@H](CC3CCCCC3)C(=O)N[C@@H]([C@@H](C)CC)C(=O)N(C)CC(=O)N(C)[C@H]3C/C=C\CCN(C3=O)[C@@H](Cc3ccc(C(F)(F)F)cc3)C(=O)N(C)CC(=O)N[C@@H](CCc3cc(F)c(C(F)(F)F)c(F)c3)C(=O)N2C1 [PP1418]	AA (a compound having 20 or more is denoted as AA)	A (a compound having 10 or more and less than 20 is denoted as A)
40.4 nM	CCO[C@@H]1C[C@H]2C(=O)NC3(CCC3)C(=O)N(C)[C@@H](C3CCCC3)C(=O)N(C)[C@H](C(=O)N3CCCC3)CC(=O)N(C)[C@@H](CC3CCCCC3)C(=O)N[C@@H]([C@@H](C)CC)C(=O)N(C)CC(=O)N(C)[C@H]3C/C=C\CCN(C3=O)[C@@H](Cc3ccc(C(F)(F)F)cc3)C(=O)N(C)CC(=O)N[C@@H](CCc3cc(F)c(C(F)(F)F)c(F)c3)C(=O)N2C1 [PP1419]	AA (a compound having 20 or more is denoted as AA)	A (a compound having 10 or more and less than 20 is denoted as A)
14.1 nM	CCO[C@@H]1C[C@H]2C(=O)NC3(CCC3)C(=O)N(C)[C@@H](C3CCCC3)C(=O)N(C)[C@H](C(=O)N3CCOCC3)CC(=O)N(C)[C@@H](CC3CCC3)C(=O)N[C@@H]([C@@H](C)CC)C(=O)N(C)CC(=O)N(C)[C@H]3C/C=C\CCN(C3=O)[C@@H](Cc3ccc(C(F)(F)F)cc3)C(=O)N(C)CC(=O)N[C@@H](CCc3cc(F)c(C(F)(F)F)c(F)c3)C(=O)N2C1 [PP1422]	AA (a compound having 20 or more is denoted as AA)	A (a compound having 10 or more and less than 20 is denoted as A)
20.2 nM	CCO[C@@H]1C[C@H]2C(=O)NC3(CCC3)C(=O)N(C)[C@@H](C3CCCC3)C(=O)N(C)[C@H](C(=O)N3CCCC3)CC(=O)N(C)[C@@H](CC3CCC3)C(=O)N[C@@H]([C@@H](C)CC)C(=O)N(C)CC(=O)N(C)[C@H]3C/C=C\CCN(C3=O)[C@@H](Cc3ccc(C)cc3)C(=O)N(C)CC(=O)N[C@@H](CCc3cc(F)c(C(F)(F)F)c(F)c3)C(=O)N2C1 [PP1425]	A (a compound having 10 or more and less than 20 is denoted as A)	B (a compound having 3 or more and less than 10 is denoted as B)
465 nM	CCO[C@@H]1C[C@H]2C(=O)NC3(CCC3)C(=O)N(C)[C@@H](C3CCCC3)C(=O)N(C)[C@H](C(=O)N(C)C)CC(=O)N(C)[C@@H](CC(C)C)C(=O)N[C@@H]([C@@H](C)CC)C(=O)N(C)CC(=O)N(C)[C@H]3C/C=C\CCN(C3=O)[C@@H](Cc3ccc(F)cc3)C(=O)N(C)CC(=O)N[C@@H](CCc3ccc4sccc4c3)C(=O)N2C1 [PP1427]	A (a compound having 10 or more and less than 20 is denoted as A)	B (a compound having 3 or more and less than 10 is denoted as B)
38.8 nM	CCO[C@@H]1C[C@H]2C(=O)NC3(CCC3)C(=O)N(C)[C@@H](C(CC)CC)C(=O)N(C)[C@H](C(=O)N(C)C)CC(=O)N(C)[C@@H](CC3CC3)C(=O)N[C@@H]([C@@H](C)CC)C(=O)N(C)CC(=O)N(C)[C@H]3C/C=C\CCN(C3=O)[C@@H](CC3CCCCC3)C(=O)N(C)CC(=O)N[C@@H](CCc3cc(F)c(C(F)(F)F)c(F)c3)C(=O)N2C1 [PP1428]	AA (a compound having 20 or more is denoted as AA)	A (a compound having 10 or more and less than 20 is denoted as A)
